Results published in ChEMBL document CHEMBL2434896, “Carbonic anhydrase inhibitors. Synthesis of heterocyclic 4-substituted pyridine-3-sulfonamide derivatives and their inhibition of the human cytosolic isozymes I and II and transmembrane tumor-associated isozymes IX and XII” (Eur J Med Chem, 2013).
The source made the active and inactive calls. The rule behind the calls is not given here.

Experiments:
Type in all cases: functional
[1] = test system: U-251; test: Growth inhibition of human U251 cells at 10 uM after 48 hrs by sulforhodamine B assay; details: for inhibition of growth at 10 µM: U-251, 48 h, read-out: GI
[2] = test system: SN12C; test: Growth inhibition of human SN12C cells at 10 uM after 48 hrs by sulforhodamine B assay; details: for inhibition of growth at 10 µM: read-out: GI
[3] = test system: NCI-H23; test: Growth inhibition of human NCI-H23 cells at 10 uM after 48 hrs by sulforhodamine B assay; details: for inhibition of growth at 10 µM: NCI-H23, 48 h, read-out: GI
[4] = test system: ACHN; test: Growth inhibition of human ACHN cells at 10 uM after 48 hrs by sulforhodamine B assay; details: for inhibition of growth at 10 µM: read-out: GI
[5] = test system: NCI-H522; test: Growth inhibition of human NCI-H522 cells at 10 uM after 48 hrs by sulforhodamine B assay; details: for inhibition of growth at 10 µM: NCI-H522, 48 h, read-out: GI
[6] = test system: PC-3; test: Growth inhibition of human PC3 cells at 10 uM after 48 hrs by sulforhodamine B assay; details: for inhibition of growth at 10 µM: PC-3, 48 h, read-out: GI
[7] = test system: MDA-MB-231; test: Growth inhibition of human MDA-MB-231 cells at 10 uM after 48 hrs by sulforhodamine B assay; details: for inhibition of growth at 10 µM: MDA-MB-231, 48 h, read-out: GI
[8] = test system: A549; test: Growth inhibition of human A549/ATCC cells at 10 uM after 48 hrs by sulforhodamine B assay; details: for inhibition of growth at 10 µM: A549, 48 h, read-out: GI
[9] = test system: HCT-15; test: Growth inhibition of human HCT15 cells at 10 uM after 48 hrs by sulforhodamine B assay; details: for inhibition of growth at 10 µM: HCT-15, 48 h, read-out: GI
[10] = test system: HCT-116; test: Growth inhibition of human HCT116 cells at 10 uM after 48 hrs by sulforhodamine B assay; details: for inhibition of growth at 10 µM: HCT-116, 48 h, read-out: GI
[11] = test system: SW-620; test: Growth inhibition of human SW620 cells at 10 uM after 48 hrs by sulforhodamine B assay; details: for inhibition of growth at 10 µM: SW-620, 48 h, read-out: GI
[12] = test system: Malme-3M; test: Growth inhibition of human MALME-3M cells at 10 uM after 48 hrs by sulforhodamine B assay; details: for inhibition of growth at 10 µM: read-out: GI
[13] = Growth inhibition of human NCI-ADR-RES cells at 10 uM after 48 hrs by sulforhodamine B assay; details: read-out: GI
[14] = test system: M14; test: Growth inhibition of human M14 cells at 10 uM after 48 hrs by sulforhodamine B assay; details: for inhibition of growth at 10 µM: M14, 48 h, read-out: GI
[15] = test system: EKVX; test: (§1) Growth inhibition of human EKVX cells at 10 uM after 48 hrs by sulforhodamine B assay
[16] = Growth inhibition of human HCC2998 cells at 10 uM after 48 hrs by sulforhodamine B assay; details: HCC 2998, 48 h, read-out: GI
[17] = as §1; details: read-out: GI
[18] = Growth inhibition of human Hs 578T cells at 10 uM after 48 hrs by sulforhodamine B assay; details: read-out: GI

Row | SMILES | growth inhibition (GI) [1] | growth inhibition (GI) [2] | growth inhibition (GI) [3] | growth inhibition (GI) [4] | inhibition of growth at 10 µM [5] [%] | inhibition of growth at 10 µM [6] [%] | growth inhibition (GI) [7] | inhibition of growth at 10 µM [8] [%] | inhibition of growth at 10 µM [9] [%] | growth inhibition (GI) [10] | growth inhibition (GI) [11] | growth inhibition (GI) [12] | inhibition of growth at 10 µM [14] [%] | growth inhibition (GI) [15] | inhibition of growth at 10 µM [1] [%] | inhibition of growth at 10 µM [10] [%] | inhibition of growth at 10 µM [12] [%] | growth inhibition (GI) [14] | inhibition of growth at 10 µM [2] [%] | inhibition of growth at 10 µM [17] [%] | other results
1 | NS(=O)(=O)c1cnccc1N1CCN(Cc2ccc3c(c2)OCO3)CC1 | inactive | inactive | inactive | inactive | 2 | 1 | inactive | 2 | 1 | inactive | inactive | inactive | 2 | inactive |  |  |  |  |  |  | inhibition of growth at 10 µM [13]: 3%
2 | CCc1cc(CC)n(-c2ccncc2S(N)(=O)=O)n1 |  | inactive | inactive | inactive | 7 | 1 | inactive | 1 | 4 |  | inactive |  |  | inactive | 1 | 1 | 9 | inactive |  |  | inhibition of growth at 10 µM [16]: 6%
3 | NS(=O)(=O)c1cnccc1N1CCN(c2ccc(Cl)c(Cl)c2)CC1 |  |  |  |  | 43 | 35 |  |  | 27 |  |  |  | 22 |  |  | 35 | 24 |  | 17 | 30 | inhibition of growth at 10 µM [3]: 33%; inhibition of growth at 10 µM [4]: 24%; inhibition of growth at 10 µM [16]: 17%; inhibition of growth at 10 µM [7]: 21%; inhibition of growth at 10 µM [11]: 3%; inhibition of growth at 10 µM [13]: 25%
4 | NS(=O)(=O)c1cnccc1N1CCN(c2ncccn2)CC1 | inactive | inactive | inactive | inactive | 2 |  | inactive |  |  | inactive | inactive |  |  | inactive |  |  | 6 | inactive |  |  | growth inhibition (GI) [6]: inactive; growth inhibition (GI) [8]: inactive; growth inhibition (GI) [9]: inactive
5 | NS(=O)(=O)c1cnccc1N1CCN(c2ccccn2)CC1 |  |  |  | inactive |  | 1 | inactive | 2 |  |  |  |  |  |  | 6 | 1 | 8 | inactive | 4 | 1 | inhibition of growth at 10 µM [3]: 4%; growth inhibition (GI) [5]: inactive; growth inhibition (GI) [9]: inactive; inhibition of growth at 10 µM [11]: 1%; inhibition of growth at 10 µM [13]: 6%; inhibition of growth at 10 µM [18]: 20%
6 | NS(=O)(=O)c1cnccc1N1CCC(Cc2ccccc2)CC1 | inactive |  | inactive | inactive | 12 | 2 | inactive | 1 | 2 |  | inactive |  |  | inactive |  | 10 | 4 | inactive | 1 |  | 
7 | Cc1ccc(C)c(N2CCN(c3ccncc3S(N)(=O)=O)CC2)c1 |  | inactive | inactive |  | 15 | 4 | inactive | 2 | 12 |  |  |  | 1 | inactive | 20 | 9 | 15 |  |  |  | inhibition of growth at 10 µM [4]: 6%; inhibition of growth at 10 µM [11]: 3%
8 | COc1ccccc1N1CCN(c2ccncc2S(N)(=O)=O)CC1 |  |  | inactive | inactive |  | 10 | inactive |  |  | inactive | inactive | inactive |  |  | 1 |  |  | inactive | 11 | 3 | growth inhibition (GI) [5]: inactive; growth inhibition (GI) [9]: inactive
9 | NS(=O)(=O)c1cnccc1N1CCN(c2ccc(Cl)cc2)CC1 |  |  |  |  | 8 | 8 |  |  | 5 |  | inactive | inactive | 1 |  |  | 5 |  |  | 5 | 11 | inhibition of growth at 10 µM [3]: 7%; inhibition of growth at 10 µM [4]: 6%; inhibition of growth at 10 µM [7]: 7%
